# Measurements reported in ChEMBL document CHEMBL1201862, “PubChem BioAssay data set” (2004).
#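 Exposure lasted 48 hours, with cells grown in 96-well plates and compounds tested at five concentrations. Abbreviation: GI50, concentration required for 50% inhibition of growth.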 The source made the active and inactive calls. Rule as the data show it: active = GI50 up to about 1.1 µM and inactive = higher.
# Key:
# Assay in all cases: DTP human tumour cell line panel, 48 h
# Hs-578T = test system: Hs-578T
# MDA-N = test system: MDA-N
# PC-3 = test system: PC-3
# DLD-1 = test system: DLD-1
# M19-MEL = test system: M19-MEL
# XF498 = test system: XF498
# SNB-78 = test system: SNB-78
# HOP-18 = test system: HOP-18
SMILES,GI50 (Hs-578T),GI50 (MDA-N),GI50 (PC-3),also measured
O=C1c2cc([N+](=O)[O-])ccc2-c2ccc3c4ccc5c6c(ccc(c7ccc1c2c73)c64)C(=O)c1cc([N+](=O)[O-])ccc1-5,> 100 µM (inactive),> 100 µM (inactive),> 100 µM (inactive),–
NC(=O)c1csc(-c2ccc(CO)o2)n1,–,> 100 µM (inactive),> 100 µM (inactive),–
O=C(C=P(c1ccccc1)(c1ccccc1)c1ccccc1)c1ccccc1-c1ccccc1C(=O)C=P(c1ccccc1)(c1ccccc1)c1ccccc1,0.0319 µM (active),0.0229 µM (active),< 0.01 µM (active),–
Cc1cc(OCC(=O)O)c(Cl)cc1Cl,> 100 µM (inactive),> 100 µM (inactive),> 100 µM (inactive),–
Cc1cc([N+](=O)[O-])c(C)c(Br)c1C,42.8 µM (inactive),> 100 µM (inactive),> 100 µM (inactive),–
C/C(=N\Nc1nc2ccccc2s1)c1ccc2ccccc2n1,84.1 µM (inactive),> 100 µM (inactive),> 100 µM (inactive),–
N#CC1=C2Sc3ccccc3N2[C@H](c2ccccc2)[C@H]2COC(=O)[C@@H]12,> 100 µM (inactive),> 100 µM (inactive),> 100 µM (inactive),–
CCOC(=O)C12CN(C34CC5CC(CC(C5)C3)C4)CC(C(=O)OCC)(C1=O)C(c1ccccc1)OC2c1ccccc1 (configuration not stated),–,–,–,GI50 (DLD-1): > 100 µM (inactive); GI50 (M19-MEL): > 100 µM (inactive); GI50 (XF498): > 100 µM (inactive); GI50 (SNB-78): > 100 µM (inactive)
COc1cc(C2SCC(=O)N2c2ccc(Oc3ccc(Cl)cc3)c(Cl)c2)cc(OC)c1OC (configuration not stated),22.2 µM (inactive),20 µM (inactive),15.4 µM (inactive),–
CCOC(=O)C(C(CC(=O)OC)NC(=O)OCc1ccccc1)C1(C)OCCO1 (configuration not stated),–,–,–,GI50 (DLD-1): > 100 µM (inactive); GI50 (XF498): 61.4 µM (inactive)
C[C@H](O)CCC(=O)c1ccoc1,–,–,–,GI50 (DLD-1): > 100 µM (inactive); GI50 (M19-MEL): > 100 µM (inactive); GI50 (SNB-78): > 100 µM (inactive); GI50 (HOP-18): 75 µM (inactive)
COc1ccc(-c2csc(Cc3nc4c(Br)cc(Br)cc4c(=O)n3-c3ccc(OC)cc3)n2)cc1,> 100 µM (inactive),3.7 µM (inactive),28.9 µM (inactive),–
CCOC(=O)c1c(OCC)[nH]c(=O)c(C(c2ccc(F)cc2)c2c(O)c(C(=O)OCC)c(OCC)[nH]c2=O)c1O,20.8 µM (inactive),–,15.3 µM (inactive),–
CCCCCCCC(CC(=O)NC(CO)C(=O)NC(CO)CC(C)C)OC(=O)CC(CCCCCCC)OC(=O)CC(CCCCCCC)OC1OC(C)C(O)C(OC2OC(C)C(O)C(OC(C)=O)C2O)C1O (configuration not stated),4.1 µM (inactive),5.41 µM (inactive),7.6 µM (inactive),–
O=C1c2cccc3cc([N+](=O)[O-])cc(c23)C(=O)N1c1ccc(OCCN2CCCC2)cc1,24.9 µM (inactive),30.8 µM (inactive),22.2 µM (inactive),–
COc1cc2oc(-c3ccc4c(c3)OCO4)c(OC)c(=O)c2c(OC)c1O,61 µM (inactive),> 100 µM (inactive),68.5 µM (inactive),–
O=C(Cn1c2c(c3ccccc31)CCCC2)N1CCOCC1,35.2 µM (inactive),> 100 µM (inactive),> 100 µM (inactive),–
O=C(N[C@@H](c1ccccc1)[C@@H](O)C(=O)OCc1ccc([N+](=O)[O-])cc1)c1ccccc1,> 100 µM (inactive),> 100 µM (inactive),> 100 µM (inactive),–
Cc1ccc(N2CCN(CCC(=O)O)CC2)cc1,> 100 µM (inactive),–,> 100 µM (inactive),–
COc1ccccc1/C=C\C(=O)C1COCN1 (configuration not stated),16.3 µM (inactive),–,13.2 µM (inactive),–
O=C(O)CC(NC(=O)/C(=C/c1ccccc1O)NC(=O)c1ccccc1)C(=O)O (configuration not stated),–,> 100 µM (inactive),86.1 µM (inactive),–
Cn1c(=O)c2c3ccccc3n(C)c2n(C)c1=O,> 100 µM (inactive),> 100 µM (inactive),–,–
Cc1c(-c2coc(-c3ccc([N+](=O)[O-])cc3)n2)c(=O)n(-c2ccccc2)n1C,–,–,–,GI50 (DLD-1): > 100 µM (inactive); GI50 (M19-MEL): > 100 µM (inactive); GI50 (SNB-78): > 100 µM (inactive)
COc1cc2c(c(OC)c1OC)C(=O)[C@H]1OC(=O)N[C@@H]21,> 100 µM (inactive),–,> 100 µM (inactive),–
CC(=O)c1c2c(cc3c1CC1(C3)Cc3cc4c(c(C(=O)O)c3C1)CCCC4)CCCC2.CC(N)c1ccccc1 (configuration not stated),36.6 µM (inactive),42.1 µM (inactive),39.7 µM (inactive),–
Clc1ccc(C2ON=C(c3ccccc3)N2C23CC4CC(CC(C4)C2)C3)cc1Cl (configuration not stated),> 10 µM (inactive),> 10 µM (inactive),> 10 µM (inactive),–
CC(C(O)Cc1ccccc1)N(C)/N=N/c1ccc([N+](=O)[O-])cc1 (configuration not stated),24 µM (inactive),19.3 µM (inactive),18.3 µM (inactive),–
Cc1cc2ccccc2oc(=O)/c1=N\Nc1ccccc1,–,> 100 µM (inactive),62.7 µM (inactive),–
COc1cc(OC)c(/C=N\Nc2nc3ccccc3c(=O)n2-c2ccccc2)c(OC)c1,–,17.4 µM (inactive),26.3 µM (inactive),–
COc1ccc(/C=C(/c2ccccc2)c2c(C)cc(C)c(/C(=C\c3ccc(OC)cc3)c3ccccc3)c2/N=N/c2cc(C)cc(C)c2)cc1,22.5 µM (inactive),24 µM (inactive),9.89 µM (inactive),–
